Experiments:
Wistar rats = test: Visible platform test (sensorimotor activity and escape motivation); assay type: in vivo, rat; details: oral DCPLA-ME 5.3 or 16.0 mg/kg
Experimental: Water maze spatial learning and memory task (2 training trials/day for 4 days) was used to evaluate effects of oral DCPLA-ME on learning and memory in rats. A visible platform test was conducted after the end of the experiments to evaluate whether the treatment might result in an altered sensorimotor activity and escape motivation.
At the end of the experiments, the rats were also tested in a visible platform test to evaluate whether the treatment might result in an altered sensorimotor activity and escape motivation.

PKC-ε = target: T1, PKC-ε (Homo sapiens, UniProt Q02156); test: PKC activation assay with purified PKC-ε isozyme (32P-phosphoprotein formation); assay type: biochemical
T1 sequence (Q02156 1-737): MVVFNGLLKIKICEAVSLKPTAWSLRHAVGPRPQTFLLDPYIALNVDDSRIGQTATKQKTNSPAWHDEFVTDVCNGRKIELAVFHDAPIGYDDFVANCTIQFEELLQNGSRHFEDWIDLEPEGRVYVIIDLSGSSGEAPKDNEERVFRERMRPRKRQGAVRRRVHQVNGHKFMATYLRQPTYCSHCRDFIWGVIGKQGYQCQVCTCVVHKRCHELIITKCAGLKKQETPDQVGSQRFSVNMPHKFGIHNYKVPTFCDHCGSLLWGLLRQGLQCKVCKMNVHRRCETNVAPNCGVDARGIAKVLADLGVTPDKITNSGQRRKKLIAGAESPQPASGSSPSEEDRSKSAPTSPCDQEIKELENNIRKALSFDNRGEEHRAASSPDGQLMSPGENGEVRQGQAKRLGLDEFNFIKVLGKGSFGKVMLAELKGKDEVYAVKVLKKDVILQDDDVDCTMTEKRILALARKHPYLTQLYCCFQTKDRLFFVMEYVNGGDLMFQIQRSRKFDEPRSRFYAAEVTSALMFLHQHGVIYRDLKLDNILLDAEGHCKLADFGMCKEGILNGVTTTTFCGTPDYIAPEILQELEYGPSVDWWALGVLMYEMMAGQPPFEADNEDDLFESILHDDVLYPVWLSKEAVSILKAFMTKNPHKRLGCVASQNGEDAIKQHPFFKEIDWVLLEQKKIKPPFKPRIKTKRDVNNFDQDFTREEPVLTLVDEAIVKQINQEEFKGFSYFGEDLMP
Experimental: For measurement of PKC activation by DCPLA-ME, activation of recombinant PKC-α, PKC-ε, and PKC-δ was evaluated. DCPLA-ME induced activation was measured in the absence of diacylglycerol (DAG) and phosphatidylserine (PS) as described earlier. See Nelson, T. J. et al., J. Biol. Chem., 2009, 284: 34514-34521, and Kanno, T. et al., J. Cell Physiol., 2009, 221: 183-188. Individual enzymes were incubated for 15 min at 37° C. in the presence of 10 μM histones, 4.89 mM CaCl2, 10 mM MgCl2, 20 mM HEPES (pH 7.4), 0.8 mM EDTA, 4 mM EGTA, 4% glycerol, 8 μg/ml aprotinin, 8 μg/ml leupeptin, 2 mM benzamidine, and 0.5 μCi of [γ-^32P]ATP. Purified PKC-α, PKC-ε and PKC-δ were preincubated with DCPLA-ME for 5 min at room temperature. [^32P]-Phosphoprotein formation was measured by adsorption onto phosphocellulose.
To measure PKC, 10 μl of cell homogenate or purified PKC isozyme was incubated for 15 min at 37° C. in the presence of 10 μM histones, 4.89 mM CaCl2, 1.2 μg/μl phosphatidyl-L-serine, 0.18 μg/μl 1,2-dioctanoyl-sn-glycerol, 10 mM MgCl2, 20 mM HEPES (pH 7.4), 0.8 mM EDTA, 4 mM EGTA, 4% glycerol, 8 μg/ml aprotinin, 8 μg/ml leupeptin, and 2 mM benzamidine. [γ32P]ATP (0.5 μCi) was added and 32P-phosphoprotein formation was measured by adsorption onto phosphocellulose as described previously. See Nelson et al., J. Neurochemistry, 1995, 65: 2350-2357.
PKC activity of each compound was measured in the absence of diacylglycerol and phosphatidyl-L-serine and PKC-δ and PKC-ε were measured in the absence of added EGTA and CaCl2, as described by Kanno et al., J. Lipid Res., 2006, 47: 1146-1156. Low concentrations of Ca^2+ are needed because high Ca^2+ interacts with the PKC phosphatidylserine binding site and prevents activation. […] To determine their PKC isozyme specificity, the compounds were pre-incubated with purified isoforms of PKC for five minutes and the PKC activity was measured radiometrically.
The activation and PKC isozyme specificity of DCPLA-ethyl ester was measured following the procedures in Example 1(B) and (C), except that 9 ng of the purified isozyme was used and it was pre-incubated for 5 minutes at room temperature (FIG. 3). PKC-ε activation by DCPLA-tert-butyl ester and DCPLA-retinyl ester was measured in the same manner as DCPLA-ethyl ester (FIG. 3).
The EC50 values, PKC specificity, and activation for a select number of DCPLA esters was determined (see Table 1). EC50 values were determined by measuring the lowest concentration that activates by 50% of maximum activation. […] The specificity and activation of PKC by the various esters of DCPLA were determined from the measurements of activation of PKC isozymes.

rat hippocampal neurons = test: Dendritic branching in seven day old rat hippocampal neurons (confocal microscopy); assay type: cell-based; details: 100 nM, 48 hr
Experimental: The effect of DCPLA-ME on development of primary neurons was investigated. Seven day old rat hippocampal neurons were treated with DCPLA-ME (100 nM) for 48 hr. Immunofluorescence and confocal microscopy-cells were grown in four chambered slides (Nunc, USA) at low density. For immunofluorescence staining the cells were washed with PBS (pH 7.4) and fixed with 4% paraformaldehyde for 4 min. Following fixation, cells were blocked and permeabilized with 5% serum and 0.3% Triton X-100 in 1×PBS for 30 min. Cells were washed 3× with 1×PBS and incubated with primary antibodies for 1 hr at 1:100 dilution. After the incubation slides were again washed 3× in 1×PBS and were incubated with the FITC anti-rabbit IgG and Rhodamine anti-mouse IgG for 1 hr at 1:400 dilution. Cells were further washed and mounted in Pro Long Gold antifade mounting solution (Invitrogen, USA). Stained cells were viewed under the LSM 710 Meta confocal microscope (Zeiss) at 350 nm, 490 nm and 540 nm excitation and 470 nm, 525 nm and 625 nm emission for DAPI, FITC and rhodamine respectively. Six individual fields at 20× or 63× oil lens magnification were analyzed for the mean fluorescence intensity (MFI) in each channel. The colocalization correlation was generated by the ZEN software (Zeiss).

- Emax (PKC-ε; % of control of PKCε at maximum): 195%
- Specificity ε/α (PKC-ε; Activation of PKC-ε ÷ activation or inhibition of PKCα at 3xEC50): 12.1
- PKC isozyme specificity (PKC-ε; PKC-ε vs PKC-α and PKC-δ): relatively specific for PKC-ε
- PKC-ε activation (PKC-ε; in a range of 0.01-10 μM): more than 50%
- EC50 (PKC-ε; lowest concentration that activates by 50% of maximum activation): 3 nM
- PKC-ε activation at its peak (PKC-ε; maximum, FIG. 1, 2, 4): up to 190 % of control
SMILES: CCCCCC1CC1CC1CC1CCCCCCCC(=O)OC (centres unmarked) [DCPLA-ME, DCPLA methyl ester]
- sensorimotor ability and escape motivation (Wistar rats): did not affect rats' sensorimotor ability and motivation for an escape
- Synaptophysin staining (rat hippocampal neurons): increased
